Tests used:
[1] = Distribution coefficient (log D), shake-flask method; assay type: physicochemical; details: octanol / phosphate buffer pH 7.4, shake-flask, radiotracer
Method: The partition coefficient D was determined by the shake-flask method. Octanol saturated with phosphate buffer pH 7.4 (0.5 mL) and phosphate buffer saturated with octanol (0.5 mL) were mixed with radiotracer of interest (^˜3 MBq). The samples were shaken for 15 min and then centrifuged at 5000 g for 5 min. Radioactivity in each phase was measured in a gamma counter (Wizard, PerkinElmer). Log D is expressed as the logarithm of the ratio between the radioactivity concentrations (Bq/mL) of the octanol and the buffer phase.

[2] = tested on: CB2; experiment: In vitro autoradiography of rat and mouse spleen slices; assay type: binding; details: 0.2 nM radioligand; for binding to spleen slices, displaced by excess of GW405833: blockade 5 μM GW405833
Method: (§1) Rodent (mouse and rat) spleen tissue were embedded in TissueTek and cut into 20 μm-thick sections on a Cryostat HM 505 N (Microm) at −15° C. (blade and block). The slices were absorbed on SuperFrost Plus slides (Menzel) and stored at −80° until used. For the experiment, the slices were thawed on ice for 10 min before conditioning in incubation buffer (50 mM TRIS/HCl, 5% BSA, pH 7.4) on ice for 10 min. The slices were then dripped with 600 μL of radioligand solution (0.2 nM) in incubation buffer and incubated for 15 min at rt in a humid chamber. For blockade conditions, the slices were dripped with 600 μL of a mixture of radioligand and GW405833 (5 μM), a specific CB2 partial agonist. After incubation, the slices were washed with washing buffer (50 mM TRIS/HCl, 1% BSA, 5% EtOH, pH 7.4) for 2 min (2×) and with distilled water for 5 s (2×) on ice. After drying for 10 min at rt, the slices were exposed (30 min) to appropriate phosphor imager plates (Fuji) and the films were scanned in a BAS5000 reader (Fuji).

[3] = target: T1, CB2 (Homo sapiens, UniProt P34972); experiment: In vitro competitive binding assay, [3H]CP55,940 displacement, hCB2 membranes; parameters: purchased PerkinElmer; host or cells: CHO-K1 cells, stably transfected (membrane preparation); details: CHO-K1 membranes with human CB2, 1.4 nM [3H]CP55,940, Cheng-Prusoff, three experiments in triplicates; read-out: KiCB2
T1 sequence (P34972 whole entry): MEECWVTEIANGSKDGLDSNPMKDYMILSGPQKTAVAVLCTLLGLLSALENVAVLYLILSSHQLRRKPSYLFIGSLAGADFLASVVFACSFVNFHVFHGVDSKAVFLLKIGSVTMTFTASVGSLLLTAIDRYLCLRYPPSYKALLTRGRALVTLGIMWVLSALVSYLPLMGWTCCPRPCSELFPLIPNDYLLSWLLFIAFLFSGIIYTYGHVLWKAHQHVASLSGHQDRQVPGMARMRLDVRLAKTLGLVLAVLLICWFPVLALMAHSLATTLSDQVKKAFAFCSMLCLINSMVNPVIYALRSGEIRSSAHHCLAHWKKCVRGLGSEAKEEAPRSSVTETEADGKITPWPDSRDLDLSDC
Method: The following test was carried out in order to determine the binding affinity of the compounds of formula I towards CB2 and CB1:
Competitive binding reactions were initiated by the addition of a membrane preparation obtained from CHO-K1 cells stably transfected with human CB1 and CB2, respectively, from PerkinElmer (0.5 pig/tube for hCB1 and hCB2) into incubation tubes. As displacer, 1.4 nM [^3H]CP55,940 (PerkinElmer) was used and 6 to 10 concentrations (ranging from 1 pM to 10 μM) of displacing ligand (compound to test) in assay buffer (50 mM TRIS, 1 mM EDTA, 3 mM MgCl2 and 0.05% bovine serum albumin, pH adjusted to 7.4) were added. Nonspecific binding was defined by the presence of 5 μM WIN-55212-2. After incubation at 30° C. for 90 min reactions were terminated by the addition of 3 mL ice cold assay buffer followed by rapid vacuum filtration through a Whatman GF/C filter (pre-soaked for 2 h in 0.05% polyethylenimine in water) and washed twice with 3 mL ice cold assay buffer. The bound activity was counted in a Beckman LS 6500 Liquid Scintillation Counter after adding 3 mL scintillation cocktail (Ultima Gold, Perkin Elmer) and thorough shaking. For each mean value three experiments, each in triplicates, were performed. K, values were determined with the equation from Cheng-Prusoff.

[4] = target: T2, CB2 (Rattus norvegicus, UniProt Q9QZN9); assay type: in vivo, male Wistar rats; parameters: from tissue; host or cells: organs of male Wistar rats after iv tracer injection; details: baseline vs blocking with 1.5 mg/kg GW405833, Wistar rats
T2 sequence (Q9QZN9 1-360): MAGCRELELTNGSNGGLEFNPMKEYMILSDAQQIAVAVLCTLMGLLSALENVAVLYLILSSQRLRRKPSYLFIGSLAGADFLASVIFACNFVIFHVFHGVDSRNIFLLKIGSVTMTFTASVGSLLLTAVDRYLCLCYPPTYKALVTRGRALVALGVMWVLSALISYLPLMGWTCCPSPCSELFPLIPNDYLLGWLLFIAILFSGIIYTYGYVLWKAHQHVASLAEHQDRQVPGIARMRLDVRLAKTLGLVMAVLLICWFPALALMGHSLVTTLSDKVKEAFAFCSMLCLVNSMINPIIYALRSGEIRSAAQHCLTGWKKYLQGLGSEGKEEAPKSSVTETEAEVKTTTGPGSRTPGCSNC
Method: For blocking conditions, GW405833 (1.5 mg/kg) was injected 30 min before the experiment (n=3). Animals were sacrificed under anesthesia with isoflurane by decapitation at 15 min post injection (p.i). Organs were collected, weighed and radioactivity measured in a gamma-counter. The accumulated radioactivity in the organs was expressed as part per thousand normalized injected dose per gram of tissue (% o normalized ID/g tissue).

[5] = target: T3, CB2 (Mus musculus, UniProt P47936); experiment: LPS mouse model of neuroinflammation, small animal PET brain scans; assay type: in vivo, CD1 male mice
T3 construct: from tissue; host or cells: brain of living CD1 male mice (PET)
T3 sequence (P47936 whole entry): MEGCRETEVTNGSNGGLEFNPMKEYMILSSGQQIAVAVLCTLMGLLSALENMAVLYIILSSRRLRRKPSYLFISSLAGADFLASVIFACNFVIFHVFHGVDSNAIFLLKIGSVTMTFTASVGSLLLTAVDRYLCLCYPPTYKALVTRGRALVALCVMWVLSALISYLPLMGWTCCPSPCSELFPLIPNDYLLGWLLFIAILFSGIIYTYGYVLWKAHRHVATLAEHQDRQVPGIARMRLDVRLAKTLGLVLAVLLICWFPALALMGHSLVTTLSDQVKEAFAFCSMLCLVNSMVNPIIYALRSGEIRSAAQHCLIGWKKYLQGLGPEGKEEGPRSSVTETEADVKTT
Method: As a model of neuroinflammation, six CD1 male mice were injected ip (100-150 μl) with 10 mg/kg lipopolysaccharide (LPS), Escherichia coli strain O111:B4, or vehicle (saline) 5 days prior to PET. […] For blocking conditions, 2.0 mg/kg GW405833 was injected sc 30 min before tracer application. Depth of anesthesia was monitored by measuring respiratory frequency (SA Instruments, Inc., Stony Brook, USA). Body temperature was controlled by a rectal probe and kept at 37° C. by a thermocoupler and a heated air stream. Data were reconstructed in user-defined time frames with a voxel size of 0.3875×0.3875×0.775 mm^3 by 2-dimensional-ordered subsets expectation maximization (2D-OSEM). Random and single but no attenuation correction was applied. PET acquisitions were followed by a CT for anatomical orientation. Image files were analyzed with PMOD 3.5 software (PMOD Technologies Ltd., Zurich, Switzerland). Tissue radioactivity was expressed as standardized uptake values (SUV), that is, the decay-corrected radioactivity per cm^3 divided by the injected radioactivity dose per gram of body weight.

[6] = target: T1, CB2; experiment: Autoradiography with post mortem spinal cord slices of ALS patients; assay type: binding; parameters: from tissue; host or cells: human post mortem ALS spinal cord sections; details: 0.2 nM tracer, absence or presence of 5 μM GW405833
Method: as §1
To evaluate the potential of our novel CB2 PET tracer in imaging ALS, post mortem spinal cord tissues from ALS patients were investigated in autoradiography experiments. Human post mortem ALS spinal cord tissue samples were embedded in TissueTek and cut into 20 μm-thick sections on a Cryostat. Autoradiography was performed as described in section “Example 5”.

[7] = cited from earlier work
[8] = target: T2, CB2; parameters: host or cells: rats in vivo (Mu et al., J. Neurochem. 2013); details: cited from earlier work
[9] = in vitro transport assay, radiolabelled KD2; cited from earlier work

In the case of `COc1cccc2c(=O)c(C(=O)NC34CC5CC(CC(C5)C3)C4)cn(CCOCC[18F])c12` [[^18F]RS-126], the logD [1] is reported as 1.99, the “unspecific binding on spleen slices” value [2] is reported as “only little unspecific binding” and the “binding to spleen slices, displaced by excess of GW405833” value [2] is reported as “high binding to spleen”.
In the case of `CCCCn1cc(C(=O)NC23CC4CC(CC(C4)C2)C3)c(=O)c2cccc(OC)c21` [RS-005, N-(1-adamantyl)-1-butyl-8-methoxy-4-oxo-1,4-dihydroquinoline-3-carboxamide], the Ki [3] is reported as 3.3 ± 0.2 nM.
For `CCOCCn1cc(C(=O)NC23CC4CC(CC(C4)C2)C3)c(=O)c2cccc(OC)c21` [[^11C]RS-016, N-(1-adamantyl)-1-(2-ethoxyethyl)-8-methoxy-4-oxo-1,4-dihydroquinoline-3-carboxamide], the “share of total activity in spleen tissue due to specific CB2 binding” value [4] was 78%, the “log D pH 7.4” value [1] was 2.78 and the “tracer accumulation in brain regions after LPS treatment compared to vehicle group” value ([5]; 5 days after 10 mg/kg LPS ip, whole brain, cortex, hippocampus, cerebellum) was “Increased”. The “tracer accumulation in brain regions after blockade” value ([5]; LPS mice, 2 mg/kg GW405833 sc 30 min before tracer) was “reduced in all brain regions”, the “unspecific binding on spleen slices” value [2] was “only little unspecific binding” and the “binding to spleen slices, displaced by excess of GW405833” value [2] was “high binding to spleen”. The “binding to ALS spinal cord tissue” value [6] was “high specific binding”.
In the case of `CCCCCn1cc(C(=O)NC23CC4CC(CC(C4)C2)C3)c(=O)c2cccc(OC)c21` [KD2, N-(1-adamantyl)-1-pentyl-8-methoxy-4-oxo-1,4-dihydroquinoline-3-carboxamide], the Ki [3] is given as 1.7 ± 2 nM, the “log D value at pH 7.4” value [7] is given as 3.29 and the distribution in brain ([8]; in vivo PET experiments) is given as “relatively low”. The spleen uptake ([8]; rats, radiolabelled KD2) was “high spleen uptake” and the “blood-brain barrier (BBB) passage” value [9] was “moderate”.
In the case of `CCCCn1cc(C(=O)NC(C)(C)C)c(=O)c2cccc(OC)c21` [RS-006, N-(tert-butyl)-1-butyl-8-methoxy-4-oxo-1,4-dihydroquinoline-3-carboxamide], the Ki [3] is reported as 8.2 ± 5.5 nM.
Work on `CCOCCn1cc(C(=O)NCCc2ccccc2)c(=O)c2cccc(OC)c21` [RS-022, 1-(2-ethoxyethyl)-8-methoxy-4-oxo-N-phenethyl-1,4-dihydroquinoline-3-carboxamide] yielded a Ki [3] of 360 ± 240 nM.
`CCCCn1cc(C(=O)NCC2CC2)c(=O)c2cccc(OC)c21` [RS-008, 1-butyl-N-(cyclopropylmethyl)-8-methoxy-4-oxo-1,4-dihydroquinoline-3-carboxamide] showed a Ki [3] of 78.8 ± 33.1 nM.
`CCOCCn1cc(C(=O)NC23CC4CC(CC(C4)C2)C3)c(=O)c2cccc(OCCF)c21` [RS-122, N-(1-adamantanyl)-1-(2-ethoxyethyl)-8-(2-fluoroethoxy)-4-oxo-1,4-dihydroquinoline-3-carboxamide] showed a Ki [3] of 72 ± 102 nM.
`CCOCCn1cc(C(=O)NC23CC4CC(CC(O)(C4)C2)C3)c(=O)c2cccc(OC)c21` [RS-028, 1-(2-ethoxyethyl)-N-(3-hydroxyadamantan-1-yl)-8-methoxy-4-oxo-1,4-dihydroquinoline-3-carboxamide] gave a Ki [3] of 0.8 ± 0.8 nM.
Work on `COc1cccc2c(=O)c(C(=O)NC(C)(C)C)cn(CCCF)c12` [RS-011, N-(tert-butyl)-1-(3-fluoropropyl)-8-methoxy-4-oxo-1,4-dihydroquinoline-3-carboxamide] yielded a Ki [3] of 750 ± 780 nM.
Molecule `CCOCCn1cc(C(=O)NC23CC4CC(CC(F)(C4)C2)C3)c(=O)c2cccc(OC)c21` [RS-030, 1-(2-ethoxyethyl)-N-(3-fluoroadamantyl)-8-methoxy-4-oxo-1,4-dihydroquinoline-3-carboxamide] has a Ki [3] of 2.1 ± 1.5 nM.
`COc1cccc2c(=O)c(C(=O)NC34CC5CC(CC(C5)C3)C4)cn(CCOCCF)c12` [RS-126, N-(1-adamantyl)-1-(2-(2-fluoroethoxy)ethyl)-8-methoxy-4-oxo-1,4-dihydroquinoline-3-carboxamide] showed a Ki [3] of 1.2 ± 0.8 nM.
For `CCCCn1cc(C(=O)NC2CCCC2)c(=O)c2cccc(OC)c21` [RS-007, 1-butyl-N-cyclopentyl-8-methoxy-4-oxo-1,4-dihydroquinoline-3-carboxamide], the Ki [3] was 19.7 ± 8.8 nM.
